Measurements taken from patent US20020146411A1, “Anticoagulant agents useful in treatment of thrombosis” (SmithKline Beecham Corporation, priority 1996, published 2002).
“Also recorded” adds a separate entry of the source.

How the values were obtained:
[1] = system: rat carotid artery thrombosis; assay: Rat carotid artery thrombosis model (FeCl3 injury), Example 3; type: in vivo
Text: In order to evaluate the efficacy of anti-Factor IX antibodies in prevention of arterial thrombosis, the rat carotid artery thrombosis model as reported by Schumacher et al. in J. Cardio. Pharm. 22, 526-533 (1993) was adapted. This model consists of segmental injury to the carotid endothelium by oxygen radicals generated by FeCl3 solution applied on the surface of the carotid artery.
In brief, rats were anesthetized with pentobarbitone sodium, the jugular vein cannulated for intravenous injections and the left femoral artery cannulated for blood pressure and heart rate monitoring. The carotid artery was isolated by aseptic technique via a surgical incision in the neck and equipped with a magnetic flow probe for blood flow measurement. After a period of stabilization, baseline parameters were established for the following variables: carotid blood flow, arterial pressure, heart rate, activated partial thromboplastin time (aPTT) and prothrombin time (PT). Thereafter, a premeasured Whatman filter paper soaked in 50% FeCl3 solution was placed on the carotid artery for 15 minutes for complete injury of the underlying endothelial cells. After removal of the FeCl3 soaked paper, the experiment was followed to completion over 60 minutes. At the end of the experiment, the carotid thrombus was extracted from the carotid artery and weighed.
All agents were administered 15 minutes prior to the onset of carotid injury. The following treatments were examined and compared to the Factor IX mAb BC2.
1. Heparin: 15, 30, 60 or 120 U/kg bolus, followed by infusion of 0.5, 1, 2 or 4 U/kg/min, respectively over 60 minutes
2. Acetylsalicylic acid (ASA, aspirin): 5 mg/kg bolus
3. Anti-Factor IX mAb BC2: 1, 3 or 6 mg/kg bolus, followed by infusion 0.3, 1, or 2 ug/kg/min, respectively over 60 minutes
4. Heparin: 30U/kg bolus+lU/kg/min+ASA at 5 mg/kg
5. Anti-Factor IX mAb BC2: 1 mg/kg+0.3 ug/kg/min+ASA at 5 mg/kg

BC2 antibody = assay: BiaCore binding of Factor IX/Factor VII constructs to immobilized BC2; details: for Degree of Binding to BC2: 200 nM construct, 25 mM MOPS pH 7.4, 0.15 M NaCl, 5 mM CaCl2
Description: A library of chimeric constructs composed of sequences of Factor IX spliced into the framework of the homologous protein Factor VII was constructed and used to map the epitope for the Factor IX BC2 mAb. See Cheung et al., Thromb. Res. 80, 419-427 (1995). Binding was measured using a BiaCore 2000 surface plasmon resonance device. The BC2 antibody was coupled directly to the chip using the NHS/EDC reaction. Binding was measured by 2 min of contact time at 20 uL/min with 200 nM of each of the given constructs in 25 mM MOPS, pH 7.4, 0.15 M NaCl, 5 mM CaCl2. Dissociation was monitored for 3 min using the same buffer with no protein. No binding was detected to the wild type construct in the presence of 50 mM EDTA.

Compound | Degree of Binding to BC2 (BC2 antibody) | other results
CC(=O)Oc1ccccc1C(=O)O [ASA, Acetylsalicylic acid, reference compound] |  | effect on carotid artery occlusion (FIG. 6) [1]: only a minor effect; effect on thrombus weight (FIG. 7) [1]: only a partial effect; effect on aPTT at 60 minutes (FIG. 4) ([1]; regimens of b146-b150, given 15 minutes before injury): did not significantly increase aPTT
IX K5A: Factor IX having a lysine to alanine substitution at residue 5 | exhibit binding to BC2; also recorded: Binds | 
Plasma IXa: plasma Factor IXa, wild type Factor IX | Binds | 
Plasma VII: plasma Factor VII | No Binding | 
VII gla (IX 3-6)/IX: chimeric Factor VII/Factor IX construct | Very Low Binding | 
VII gla (IX 3-11)/IX: residues 3-11 of Factor IX gla domain within the Factor VII gla domain | exhibit binding to BC2; also recorded: equivalent to wild type Factor IX; also recorded: Binds | 
VII gla (IX 9-11)/IX: chimeric Factor VII/Factor IX construct | Very Low Binding | 
VII gla/IX: chimeric Factor VII/Factor IX construct | No Binding | 
r-IX: recombinant wild type Factor IX | Binds | 
wild type construct: wild type Factor IX construct used in BC2 epitope mapping |  | binding to BC2 in the presence of EDTA (BC2 antibody; 50 mM EDTA): No binding
